# Results as given in PMC3914206.
# Legend:
# Assay in all cases: KiNativ chemical proteomics profiling in HeLa and PC3 cell lysates
# [1] = biological target: T1, selected panels of kinases in HeLa and PC3 cell lysates (Homo sapiens, UniProt Q13188); assay type: binding; conditions: 10 uM, peptide […]k[…], labeling site Lys1
# T1 construct: endogenous in cells; host or cells: HeLa and PC3 cell lysates
# T1 sequence (Q13188 1-491): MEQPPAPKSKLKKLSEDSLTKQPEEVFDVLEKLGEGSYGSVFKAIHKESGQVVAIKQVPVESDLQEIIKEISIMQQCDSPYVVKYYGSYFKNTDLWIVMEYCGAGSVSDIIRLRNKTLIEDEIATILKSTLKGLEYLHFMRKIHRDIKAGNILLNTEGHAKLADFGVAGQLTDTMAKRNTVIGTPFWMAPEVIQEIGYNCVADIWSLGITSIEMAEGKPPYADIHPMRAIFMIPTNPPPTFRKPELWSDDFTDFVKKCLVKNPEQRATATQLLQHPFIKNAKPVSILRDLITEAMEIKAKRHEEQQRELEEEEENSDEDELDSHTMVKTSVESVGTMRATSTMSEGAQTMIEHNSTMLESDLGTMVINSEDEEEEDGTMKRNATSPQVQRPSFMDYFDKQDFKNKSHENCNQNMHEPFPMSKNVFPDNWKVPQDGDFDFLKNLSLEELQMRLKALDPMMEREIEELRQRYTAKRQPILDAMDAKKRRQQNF
# [2] = tested on: selected panels of kinases in HeLa and PC3 cell lysates; assay type: binding, human; conditions: 10 uM; for % Inhibition PI4KA,PI4KAP2: peptide SGTPMQSAAkAPYLAK, labeling site ATP; for % Inhibiton, MAP3K2,MAP3K3: peptide DIkGANILR; for % Inhibiton, IKKe,TBK1: peptide DIkPGNIMR; for % Inhibiton, JNK1,JNK2,JNK3: peptide DLkPSNIVVK; for % Inhibiton, MAP2K1,MAP2K2: peptide DVkPSNILVNSR
# [3] = biological target: T2, selected panels of kinases in HeLa and PC3 cell lysates (Homo sapiens, UniProt Q6PHR2); assay type: binding; conditions: 10 uM; ULK3; peptide EVVAIkCVAK; proteome HEL; labeling site Lys1
# T2 construct: endogenous in cells; host or cells: HeLa and PC3 cell lysates
# [4] = biological target: T3, selected panels of kinases in HeLa and PC3 cell lysates (Homo sapiens, UniProt Q96S38); assay type: binding; conditions: 10 uM; RSKL1 domain1; peptide VLGVIDkVLLVMDTR; proteome HEL; labeling site Protein Kinase Domain
# T3 construct: endogenous in cells; host or cells: HeLa and PC3 cell lysates
# T3 sequence (Q96S38 whole entry, the tested form may be a part): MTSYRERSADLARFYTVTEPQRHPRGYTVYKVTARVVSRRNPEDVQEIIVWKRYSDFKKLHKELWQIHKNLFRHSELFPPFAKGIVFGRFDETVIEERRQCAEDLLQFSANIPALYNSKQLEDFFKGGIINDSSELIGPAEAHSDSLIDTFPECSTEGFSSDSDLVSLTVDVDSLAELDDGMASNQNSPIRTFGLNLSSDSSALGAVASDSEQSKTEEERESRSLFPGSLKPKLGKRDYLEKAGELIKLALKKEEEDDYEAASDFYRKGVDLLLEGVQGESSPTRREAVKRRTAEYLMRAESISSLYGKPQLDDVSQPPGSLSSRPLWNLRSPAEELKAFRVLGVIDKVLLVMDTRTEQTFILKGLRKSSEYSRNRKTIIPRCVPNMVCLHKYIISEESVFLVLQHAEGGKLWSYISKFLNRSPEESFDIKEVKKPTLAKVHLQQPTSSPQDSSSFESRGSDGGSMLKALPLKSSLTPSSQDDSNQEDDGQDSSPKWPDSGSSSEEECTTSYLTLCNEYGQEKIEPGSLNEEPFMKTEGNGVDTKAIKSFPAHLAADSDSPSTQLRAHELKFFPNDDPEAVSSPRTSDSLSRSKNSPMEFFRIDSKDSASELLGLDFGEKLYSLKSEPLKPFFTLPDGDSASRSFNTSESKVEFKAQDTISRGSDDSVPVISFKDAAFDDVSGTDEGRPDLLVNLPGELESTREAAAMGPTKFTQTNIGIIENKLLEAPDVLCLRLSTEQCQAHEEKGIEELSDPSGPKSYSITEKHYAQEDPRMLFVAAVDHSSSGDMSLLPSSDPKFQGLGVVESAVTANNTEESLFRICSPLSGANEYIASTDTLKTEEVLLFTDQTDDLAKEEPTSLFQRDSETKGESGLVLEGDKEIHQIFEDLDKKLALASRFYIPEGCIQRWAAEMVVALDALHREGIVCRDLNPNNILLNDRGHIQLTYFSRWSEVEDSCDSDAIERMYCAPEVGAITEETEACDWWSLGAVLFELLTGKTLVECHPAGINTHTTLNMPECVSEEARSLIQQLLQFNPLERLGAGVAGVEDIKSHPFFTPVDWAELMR
# [5] = biological target: T4, selected panels of kinases in HeLa and PC3 cell lysates (Homo sapiens, UniProt P45985); assay type: binding; conditions: 10 uM, proteome PC3
# T4 construct: endogenous in cells; host or cells: HeLa and PC3 cell lysates
# T4 sequence (P45985 1-399): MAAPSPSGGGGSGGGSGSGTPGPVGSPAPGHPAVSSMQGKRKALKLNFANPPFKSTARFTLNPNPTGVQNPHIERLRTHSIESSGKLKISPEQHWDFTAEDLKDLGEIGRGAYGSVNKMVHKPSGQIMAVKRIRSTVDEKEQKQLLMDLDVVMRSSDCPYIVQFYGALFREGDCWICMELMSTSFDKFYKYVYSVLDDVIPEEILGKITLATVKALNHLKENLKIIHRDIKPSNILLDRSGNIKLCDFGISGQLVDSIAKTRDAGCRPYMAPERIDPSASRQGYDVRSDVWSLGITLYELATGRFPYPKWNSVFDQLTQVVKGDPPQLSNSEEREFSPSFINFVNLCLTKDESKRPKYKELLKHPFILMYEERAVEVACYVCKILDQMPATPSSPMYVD
# [6] = biological target: T5, selected panels of kinases in HeLa and PC3 cell lysates (Homo sapiens, UniProt O95835); assay type: binding; conditions: 10 uM; proteome HEL; peptide ALYATkTLR; labeling site Lys1
# T5 construct: endogenous in cells; host or cells: HeLa and PC3 cell lysates
# [7] = biological target: T6, selected panels of kinases in HeLa and PC3 cell lysates (Homo sapiens, UniProt P42338); assay type: binding; conditions: 10 uM; PIK3CB; peptide […]k[…]; proteome PC3; labeling site ATP
# T6 construct: endogenous in cells; host or cells: HeLa and PC3 cell lysates
# T6 sequence (P42338 whole entry): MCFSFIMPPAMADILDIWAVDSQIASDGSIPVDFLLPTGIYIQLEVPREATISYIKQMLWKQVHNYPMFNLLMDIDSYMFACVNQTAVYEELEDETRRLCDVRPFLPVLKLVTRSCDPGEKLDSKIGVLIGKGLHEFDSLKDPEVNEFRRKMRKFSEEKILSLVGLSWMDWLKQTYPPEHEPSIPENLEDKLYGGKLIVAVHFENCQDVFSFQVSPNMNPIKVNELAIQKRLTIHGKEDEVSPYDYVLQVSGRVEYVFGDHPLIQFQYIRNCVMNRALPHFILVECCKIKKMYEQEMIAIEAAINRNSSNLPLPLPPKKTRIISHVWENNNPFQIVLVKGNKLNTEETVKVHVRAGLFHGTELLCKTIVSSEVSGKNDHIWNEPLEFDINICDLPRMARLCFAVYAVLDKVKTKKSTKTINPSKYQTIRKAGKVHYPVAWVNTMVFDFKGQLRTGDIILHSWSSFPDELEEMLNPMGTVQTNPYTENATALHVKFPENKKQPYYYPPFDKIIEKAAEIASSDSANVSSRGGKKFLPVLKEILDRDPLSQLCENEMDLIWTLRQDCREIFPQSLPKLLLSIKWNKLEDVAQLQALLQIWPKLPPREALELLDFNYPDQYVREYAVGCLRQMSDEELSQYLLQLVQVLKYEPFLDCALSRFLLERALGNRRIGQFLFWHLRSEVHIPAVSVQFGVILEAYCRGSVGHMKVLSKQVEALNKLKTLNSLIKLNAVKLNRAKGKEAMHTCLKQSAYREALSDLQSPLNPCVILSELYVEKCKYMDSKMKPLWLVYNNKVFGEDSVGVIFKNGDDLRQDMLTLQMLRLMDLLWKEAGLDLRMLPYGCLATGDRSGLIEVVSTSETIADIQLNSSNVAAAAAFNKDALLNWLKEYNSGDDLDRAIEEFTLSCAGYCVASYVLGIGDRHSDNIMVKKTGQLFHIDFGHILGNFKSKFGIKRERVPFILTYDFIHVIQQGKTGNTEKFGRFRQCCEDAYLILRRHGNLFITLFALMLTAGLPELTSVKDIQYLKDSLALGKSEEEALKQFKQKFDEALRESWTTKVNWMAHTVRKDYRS
# [8] = biological target: T7, selected panels of kinases in HeLa and PC3 cell lysates (Homo sapiens, UniProt Q9Y6R4); assay type: binding; conditions: 10 uM, peptide DIk[…], labeling site Lys2
# T7 construct: endogenous in cells; host or cells: HeLa and PC3 cell lysates
# T7 sequence (Q9Y6R4 whole entry): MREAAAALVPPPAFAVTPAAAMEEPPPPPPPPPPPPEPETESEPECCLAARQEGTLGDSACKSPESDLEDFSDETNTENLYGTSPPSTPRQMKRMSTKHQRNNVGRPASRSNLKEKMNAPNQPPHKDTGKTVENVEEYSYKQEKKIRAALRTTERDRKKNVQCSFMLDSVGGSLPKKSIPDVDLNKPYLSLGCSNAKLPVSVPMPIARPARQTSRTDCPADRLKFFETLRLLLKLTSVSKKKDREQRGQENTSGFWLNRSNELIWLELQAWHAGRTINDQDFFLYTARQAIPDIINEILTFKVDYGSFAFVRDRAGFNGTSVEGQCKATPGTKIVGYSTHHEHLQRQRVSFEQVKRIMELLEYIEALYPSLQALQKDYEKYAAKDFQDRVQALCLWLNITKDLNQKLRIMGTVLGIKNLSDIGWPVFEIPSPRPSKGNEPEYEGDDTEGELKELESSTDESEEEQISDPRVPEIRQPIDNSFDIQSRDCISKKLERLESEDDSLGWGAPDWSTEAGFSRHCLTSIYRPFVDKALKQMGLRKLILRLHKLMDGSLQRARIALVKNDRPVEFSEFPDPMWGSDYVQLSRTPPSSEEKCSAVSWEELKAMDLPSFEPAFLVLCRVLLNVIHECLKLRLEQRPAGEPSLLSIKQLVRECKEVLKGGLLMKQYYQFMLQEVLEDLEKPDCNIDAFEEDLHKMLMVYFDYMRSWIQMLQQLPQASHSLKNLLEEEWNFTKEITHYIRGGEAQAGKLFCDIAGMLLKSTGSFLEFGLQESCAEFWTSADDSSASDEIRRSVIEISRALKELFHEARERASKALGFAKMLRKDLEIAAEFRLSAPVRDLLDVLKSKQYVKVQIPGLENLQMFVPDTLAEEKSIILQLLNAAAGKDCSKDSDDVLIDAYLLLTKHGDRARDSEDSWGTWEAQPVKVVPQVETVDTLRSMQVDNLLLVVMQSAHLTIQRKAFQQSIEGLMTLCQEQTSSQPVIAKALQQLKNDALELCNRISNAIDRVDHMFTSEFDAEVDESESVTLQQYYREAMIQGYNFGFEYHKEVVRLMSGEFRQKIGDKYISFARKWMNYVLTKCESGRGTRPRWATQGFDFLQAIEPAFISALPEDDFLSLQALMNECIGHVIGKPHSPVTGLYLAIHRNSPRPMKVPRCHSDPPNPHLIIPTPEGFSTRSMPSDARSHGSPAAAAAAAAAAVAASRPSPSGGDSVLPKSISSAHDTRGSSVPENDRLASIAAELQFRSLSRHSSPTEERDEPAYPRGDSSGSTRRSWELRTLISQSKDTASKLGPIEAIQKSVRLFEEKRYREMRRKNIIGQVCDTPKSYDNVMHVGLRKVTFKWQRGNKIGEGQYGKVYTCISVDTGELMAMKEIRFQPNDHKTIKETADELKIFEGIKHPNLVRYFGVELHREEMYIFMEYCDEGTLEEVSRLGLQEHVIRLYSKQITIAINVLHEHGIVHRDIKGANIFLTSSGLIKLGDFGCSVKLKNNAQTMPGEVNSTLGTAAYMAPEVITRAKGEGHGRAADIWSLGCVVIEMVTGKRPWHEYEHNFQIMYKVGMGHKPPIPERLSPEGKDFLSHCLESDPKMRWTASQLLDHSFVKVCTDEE
# [9] = biological target: T8, selected panels of kinases in HeLa and PC3 cell lysates (Homo sapiens, UniProt Q8IVH8); assay type: binding; conditions: 10 uM; proteome PC3; peptide […]kVIK; labeling site Lys1
# T8 construct: endogenous in cells; host or cells: HeLa and PC3 cell lysates
# [10] = biological target: T9, selected panels of kinases in HeLa and PC3 cell lysates (Homo sapiens, UniProt P25098); assay type: binding; conditions: 10 uM; proteome HEL; peptide DLk[…]; labeling site Lys2
# T9 construct: endogenous in cells; host or cells: HeLa and PC3 cell lysates
# T9 sequence (P25098 whole entry): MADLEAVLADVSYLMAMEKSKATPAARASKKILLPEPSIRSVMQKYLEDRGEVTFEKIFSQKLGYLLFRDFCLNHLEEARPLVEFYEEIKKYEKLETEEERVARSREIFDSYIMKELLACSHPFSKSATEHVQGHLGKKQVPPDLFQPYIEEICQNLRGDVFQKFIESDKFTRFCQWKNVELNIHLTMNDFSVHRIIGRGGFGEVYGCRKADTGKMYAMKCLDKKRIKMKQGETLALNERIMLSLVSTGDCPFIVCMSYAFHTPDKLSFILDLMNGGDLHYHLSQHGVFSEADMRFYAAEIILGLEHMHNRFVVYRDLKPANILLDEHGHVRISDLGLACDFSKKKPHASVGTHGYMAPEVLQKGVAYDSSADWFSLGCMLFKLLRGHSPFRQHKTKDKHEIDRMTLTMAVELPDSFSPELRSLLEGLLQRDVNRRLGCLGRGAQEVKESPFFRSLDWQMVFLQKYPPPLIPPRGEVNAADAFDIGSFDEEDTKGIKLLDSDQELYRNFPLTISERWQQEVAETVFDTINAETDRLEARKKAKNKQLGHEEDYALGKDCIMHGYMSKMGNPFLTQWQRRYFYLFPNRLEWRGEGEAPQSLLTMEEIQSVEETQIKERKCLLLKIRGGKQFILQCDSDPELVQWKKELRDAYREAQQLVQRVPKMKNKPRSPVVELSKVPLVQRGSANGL
# [11] = biological target: T10, selected panels of kinases in HeLa and PC3 cell lysates (Homo sapiens, UniProt P49840); assay type: binding; conditions: 10 uM; proteome HEL; peptide DIk[…]; labeling site Lys2
# T10 construct: endogenous in cells; host or cells: HeLa and PC3 cell lysates
# T10 sequence (P49840 whole entry): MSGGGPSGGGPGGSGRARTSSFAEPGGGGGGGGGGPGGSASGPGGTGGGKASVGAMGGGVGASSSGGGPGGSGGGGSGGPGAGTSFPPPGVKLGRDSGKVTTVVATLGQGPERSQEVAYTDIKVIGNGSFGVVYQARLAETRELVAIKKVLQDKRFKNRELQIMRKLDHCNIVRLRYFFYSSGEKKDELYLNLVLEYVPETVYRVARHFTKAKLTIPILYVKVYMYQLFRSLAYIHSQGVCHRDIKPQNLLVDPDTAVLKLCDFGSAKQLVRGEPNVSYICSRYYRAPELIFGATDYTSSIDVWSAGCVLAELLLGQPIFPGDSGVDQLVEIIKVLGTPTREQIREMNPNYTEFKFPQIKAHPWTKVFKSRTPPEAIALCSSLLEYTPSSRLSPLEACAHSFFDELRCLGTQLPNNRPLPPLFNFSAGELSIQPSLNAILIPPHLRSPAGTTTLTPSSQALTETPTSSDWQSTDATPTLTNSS
# [12] = biological target: T11, selected panels of kinases in HeLa and PC3 cell lysates (Homo sapiens, UniProt Q7KZI7); assay type: binding; conditions: 10 uM; proteome PC3; peptide EVAVk[…]; labeling site Lys1
# T11 construct: endogenous in cells; host or cells: HeLa and PC3 cell lysates
# [13] = peptide DIk[…], proteome HEL, labeling site Lys2
# [14] = peptide DIk[…], proteome PC3, labeling site Lys2
# [15] = proteome HEL, labeling site Lys2
# [16] = proteome HEL, peptide DLk[…], labeling site Lys2
# [17] = proteome PC3, labeling site Lys2
# [18] = proteome PC3, peptide DIk[…], labeling site Lys2
# [19] = proteome PC3, peptide DLk[…], labeling site Lys2
compound,measurement,setting,value
"COc1cc(C(=O)N2CCC(N3CCN(C)CC3)CC2)ccc1Nc1ncc2c(n1)N(C1CCCC1)c1ccccc1C(=O)N2C [Compound 25, 11-cyclopentyl-2-((2-methoxy-4-(4-(4-methylpiperazin-1-yl)piperidine-1-carbonyl)phenyl)amino)-5-methyl-5H-benzo[e]pyrimido[5,4-b][1,4]diazepin-6(11H)-one]","% Inhibiton, MST2",[1]; proteome HEL,-4.5%
same,"% Inhibiton, MST2",[1]; proteome PC3,-9.2%
same,"% Inhibition PI4KA,PI4KAP2",[2]; proteome HEL,23.7%
same,"% Inhibition PI4KA,PI4KAP2",[2]; proteome PC3,-7.2%
same,"% Inhibition PKCa,PKCb","[2]; PKCa,PKCb, peptide DLk[…], proteome PC3, labeling site Lys2",16.4%
same,"% Inhibition PKD1,PKD2","[2]; PKD1,PKD2, peptide NIVHCDLk[…], proteome HEL, labeling site Lys2",-30.1%
same,"% Inhibition ROCK1,ROCK2","[2]; ROCK1,ROCK2, peptide DVkPDNMLLDK, proteome PC3, labeling site Lys2",5.7%
same,"% Inhibition RSK1,RSK2 domain1","[2]; RSK1,RSK2 domain1, peptide DLk[…], proteome HEL, labeling site Lys2",-6.2%
same,"% Inhibition RSK1,RSK4 domain1","[2]; RSK1,RSK4 domain1, peptide VLGQGSFGkVFLVR, proteome HEL, labeling site ATP Loop",-4.9%
same,"% Inhibition SRPK1,SRPK2","[2]; SRPK1,SRPK2, peptide FVAMkVVK, proteome PC3, labeling site Lys1",-2.0%
same,"% Inhibition TAO1,TAO3",[2]; [13],21.0%
same,"% Inhibition TAO1,TAO3",[2]; [14],-5.2%
same,"% Inhibition Wnk1,Wnk2,Wnk3","[2]; Wnk1,Wnk2,Wnk3, peptide DLk[…], proteome HEL, labeling site Lys2",9.6%
same,"% Inhibition Wnk1,Wnk2,Wnk4","[2]; Wnk1,Wnk2,Wnk4, peptide IGDLGLATLkR, proteome PC3, labeling site Activation Loop",-9.4%
same,"% Inhibition ZC1/HGK,ZC2/TNIK,ZC3/MINK",[2]; [13],10.0%
same,"% Inhibition ZC1/HGK,ZC2/TNIK,ZC3/MINK",[2]; [14],-6.5%
same,"% Inhibition p70S6K,p70S6Kb","[2]; p70S6K,p70S6Kb, peptide GGYGkVFQVR, proteome PC3, labeling site ATP Loop",-1.5%
same,"% Inhibiton, MAP3K2,MAP3K3",[2]; [15],14.4%
same,"% Inhibiton, IKKe,TBK1",[2]; [15],18.2%
same,"% Inhibiton, NEK6,NEK7","[2]; proteome HEL, peptide DIk[…], labeling site Lys2",6.9%
same,"% Inhibiton, JNK1,JNK2,JNK3",[2]; [15],33.5%
same,"% Inhibiton, AMPKa1,AMPKa2",[2]; [16],9.6%
same,"% Inhibiton, MARK2,MARK3",[2]; [16],9.5%
same,"% Inhibiton, MAST2,MAST4",[2]; [16],28.2%
same,"% Inhibiton, p38d,p38g",[2]; [16],12.3%
same,"% Inhibiton, MAP2K1,MAP2K2",[2]; [15],-0.9%
same,"% Inhibiton, MYO3A,MYO3B","[2]; proteome HEL, peptide DVk[…], labeling site Lys2",-3.3%
same,"% Inhibiton, BMX,BTK","[2]; proteome HEL, peptide GQYDVAIkMIK, labeling site Lys1",~43.0%
same,"% Inhibiton, MAP3K5,MAP3K6,MAP3K7","[2]; proteome HEL, peptide IAIkEIPERDSR, labeling site Lys1",-4.3%
same,"% Inhibiton, KSR1,KSR2","[2]; proteome HEL, peptide SkNVFYDNGK, labeling site Protein Kinase Domain",6.2%
same,"% Inhibiton, AMPKa1,AMPKa2","[2]; proteome HEL, peptide VAVkILNR, labeling site Lys1",10.9%
same,"% Inhibiton, MSK1,MSK2 domain1","[2]; proteome HEL, peptide VLGTGAYGkVFLVR, labeling site ATP Loop",-9.5%
same,"% Inhibiton, ABL,ARG","[2]; proteome HEL, peptide […]kFPIK, labeling site Activation Loop",17.5%
same,"% Inhibiton, MAP3K2,MAP3K3",[2]; [17],-0.6%
same,"% Inhibiton, IKKe,TBK1",[2]; [17],11.0%
same,"% Inhibiton, MST1,MST2",[2]; [18],8.8%
same,"% Inhibiton, MST4,YSK1",[2]; [18],1.0%
same,"% Inhibiton, NEK6,NEK7",[2]; [18],-5.0%
same,"% Inhibiton, CaMK2a,CaMK2b,CaMK2d,CaMK2g","[2]; proteome PC3, peptide DLkPENLLLASK, labeling site Lys2",-1.1%
same,"% Inhibiton, JNK1,JNK2,JNK3",[2]; [17],30.3%
same,"% Inhibiton, AMPKa1,AMPKa2",[2]; [19],16.4%
same,"% Inhibiton, CDK11,CDK8",[2]; [19],8.9%
same,"% Inhibiton, MARK2,MARK3",[2]; [19],11.6%
same,"% Inhibiton, p38d,p38g",[2]; [19],-6.8%
same,"% Inhibiton, MAP2K1,MAP2K2",[2]; [17],-0.2%
same,"% Inhibiton, CK1d,CK1e","[2]; proteome PC3, peptide DVk[…], labeling site Lys2",-16.9%
same,"% Inhibiton, MARK3,MARK4","[2]; proteome PC3, peptide EVAIkIIDK, labeling site Lys1",-5.2%
same,"% Inhibiton, FYN,SRC,YES","[2]; proteome PC3, peptide QGAk[…], labeling site Activation Loop",-32.2%
same,"% Inhibiton, AMPKa1,AMPKa2","[2]; proteome PC3, peptide VAVkILNR, labeling site Lys1",14.9%
same,% Inhibition ULK3,[3],-3.7%
same,% Inhibition RSKL1 domain1,[4],~75.1%
same,"% Inhibiton, MAP2K4","[5]; peptide DIkPSNILLDR, labeling site Lys2",-7.6%
same,"% Inhibiton, MAP2K4","[5]; peptide […]kR, labeling site Lys1",-9.0%
same,"% Inhibiton, LATS1",[6],7.2%
same,% Inhibition PIK3CB,[7],0.8%
same,"% Inhibiton, MAP3K4",[8]; proteome HEL,7.2%
same,"% Inhibiton, MAP3K4",[8]; proteome PC3,2.6%
same,"% Inhibiton, KHS2",[9],-4.9%
same,"% Inhibiton, BARK1",[10],12.0%
same,"% Inhibiton, GSK3A",[11],4.1%
same,"% Inhibiton, MARK2",[12],1.3%
